This note sets out measurements from patent US20220356176A1, “Kv11.1-3.1 INHIBITING METHODS AND COMPOSITIONS” (The Johns Hopkins University, priority 2019, published 2022).

Structures are written as SMILES. Where a name gives a salt, the structure may show the parent alone.

T1 sequence (Q12809 1-1063 isoform Q12809-7): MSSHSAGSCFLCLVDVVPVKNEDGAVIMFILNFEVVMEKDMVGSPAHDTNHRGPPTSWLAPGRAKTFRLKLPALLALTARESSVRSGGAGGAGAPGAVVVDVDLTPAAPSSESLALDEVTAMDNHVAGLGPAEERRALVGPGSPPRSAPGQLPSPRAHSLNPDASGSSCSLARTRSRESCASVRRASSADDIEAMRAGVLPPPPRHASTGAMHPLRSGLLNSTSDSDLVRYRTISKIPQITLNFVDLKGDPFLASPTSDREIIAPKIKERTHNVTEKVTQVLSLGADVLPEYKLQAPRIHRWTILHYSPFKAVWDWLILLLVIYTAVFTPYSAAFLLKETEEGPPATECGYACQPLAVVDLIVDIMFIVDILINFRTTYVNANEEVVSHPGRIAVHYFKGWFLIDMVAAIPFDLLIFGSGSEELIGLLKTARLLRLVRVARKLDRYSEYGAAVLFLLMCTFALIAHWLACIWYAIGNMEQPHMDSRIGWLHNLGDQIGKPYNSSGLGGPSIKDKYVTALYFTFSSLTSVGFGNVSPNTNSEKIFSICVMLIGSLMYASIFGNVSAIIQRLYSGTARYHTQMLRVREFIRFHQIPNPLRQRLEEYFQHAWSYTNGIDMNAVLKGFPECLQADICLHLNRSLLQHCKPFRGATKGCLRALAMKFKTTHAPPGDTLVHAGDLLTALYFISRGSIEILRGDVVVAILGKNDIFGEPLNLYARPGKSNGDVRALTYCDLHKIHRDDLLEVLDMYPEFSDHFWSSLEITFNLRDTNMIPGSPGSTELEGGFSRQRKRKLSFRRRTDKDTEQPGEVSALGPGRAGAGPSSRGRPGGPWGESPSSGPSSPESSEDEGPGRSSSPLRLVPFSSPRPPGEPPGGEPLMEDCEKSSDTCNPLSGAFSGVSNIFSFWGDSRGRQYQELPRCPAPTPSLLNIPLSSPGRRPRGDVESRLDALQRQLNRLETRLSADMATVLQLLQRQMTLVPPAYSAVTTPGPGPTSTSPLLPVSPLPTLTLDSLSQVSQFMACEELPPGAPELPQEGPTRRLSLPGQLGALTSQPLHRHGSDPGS

This assay addresses T1, KCNH2-3.1 (Kv11.1-3.1 containing potassium channel; hERG 3.1) (Homo sapiens, UniProt Q12809).
T1 construct: expressed in transfected cells; host or cells: U2OS cells transduced with hERG 3.1 BacMam virus
Nature of the assay: KCNH2-3.1 inhibition ion (thallium) flux assay, FluxOR. The assay is classed as cell-based. The note with it: U2OS cells transduced with hERG 3.1 Bacmam virus, 5 minutes compound incubation, read-out: Activity range (IC50). The text has this: The ability of the presently disclosed compounds to inhibit the activity of the ion channel produced from the KCNH2-3.1 transcript may be determined by methods known to those in the art for measuring ion channel inhibition. One method for measuring ion channel activity uses a thallium flux assay (Titus et al., 2009; FluxOR™ kit from Life Technologies). This assay measures the passage of thallium through the channel as indicated by a thallium sensitive dye loaded into the cell.
The ability of compounds to inhibit the activity of KCNH2-3.1 was determined by an ion flux assay as described (Titus et al, 2009, which is incorporated herein by reference). U2OS cells were cultured in media containing DMEM, 10% FBS, and Penicillin/Streptomycin. Cells were grown to 90% confluency then washed with PBS and pelleted. Cells were resuspended in DMEM containing 2% FBS and incubated with hERG or hERG 3.1 Bacmam virus for 4 hours at room temperature in the dark. Cells were plated onto clear-bottom PDL coated 1536 well plates and allowed to grow 16-20 hours at 37° C. FluxOr loading buffer containing 10mM Red Dye #40 was added to each well and incubated for 45 minutes. Plates were loaded and analyzed in Hamamatsu FDSS (7000) using a two-addition protocol. In the first addition step of the assay, compounds to be tested and the cell compound mixture were incubated together for 5 minutes before addition of FluxOr stimulus buffer as the second addition step. Channel activity was detected and analyzed via the slope of fluorescence intensities versus the time of first 30 s after compound addition was calculated from the kinetic results. The signal-to-basal ratio was calculated as the slope of DMSO solvent controls in the stimulated group divided by the slope of an unstimulated group. The concentration responses of compound inhibition from the experiments were analyzed with Prism software (GraphPad, San Diego, Calif., USA).
As the data herein indicate, a broad variety of compounds of formula (I), formula (II), or formula (III) were found effective as KCNH2-3.1 containing potassium channel inhibitors at low concentrations. […] In the Table 1 below, a single plus (+) is associated with an IC50 of from about 2-10 μM; two plus signs (++) is associated with an IC50 from about 500 nM to about 2 μM; and three plus signs (+++) is associated with an IC50 less than about 500 nM.
With `CC1CC(c2ccccc2)CCN1CC(=O)Nc1ccc(N2CCCCCC2)cc1` (mixture of isomers) [Example 19, N-[4-(azepan-1-yl)phenyl]-2-(2-methyl-4-phenyl-1-piperidyl)acetamide], the IC50 lay within 500 to 2000 nM.
Under `O=C(CN1CCCCC1)Nc1ccc(N2CCCOCC2)cc1` [Example 1, N-[4-(1,4-oxazepan-4-yl)phenyl]-2-(1-piperidyl)acetamide hydrochloride] stands 2000 to 10000 nM; under `CC1CCN(c2ccc(NC(=O)CN3CC4CCC3CC4)cn2)CC1` [Example 3, 2-(8-azabicyclo[3.2.1]octan-8-yl)-N-16-(4-methyl-1-piperidyl)-3-pyridyljacetamide], 500 to 2000 nM.
For the compound `O=C(CN1CCCOCC1)Nc1ccc(N2CCCCCC2)cc1` [Example 7, N-[4-(azepan-1-yl)phenyl]-2-(1,4-oxazepan-4-yl)acetamide hydrochloride], the IC50 lay in the range of 2000 to 10000 nM.
Under `O=C(CN1CCCC(F)C1)Nc1ccc(N2CCCCCC2)cc1` (stereo not shown) [Example 8, N-[4-(azepan-1-yl)phenyl]-2-(3-fluoro-1-piperidyl)acettamide] stands 500 to 2000 nM; under `O=C(CN1CCCCC1C(F)(F)F)Nc1ccc(N2CCCCCC2)cc1` (stereo not shown) [Example 9, N-[4-(azepan-1-yl)pheny]-2-[2-(trifluoromethyl)-1-piperidyl]acetamide], 500 to 2000 nM; under `O=C(CN1CCC(CO)CC1)Nc1ccc(N2CCCCCC2)cc1` [Example 10, N-[4-(azepan-1-yl)phenyl]-2-[4-(hydroxymethyl)-1-piperidyl]acetamide], 2000 to 10000 nM.
The result for `O=C(CN1CCCCC1CO)Nc1ccc(N2CCCCCC2)cc1` (stereo not shown) [Example 11, N-[4-(azepan-1-yl)phenyl]-2-[2-(hydroxymethyl)-1-piperidyl]acetamide] reads 2000 to 10000 nM; that for `CC(C)(O)C1CCN(CC(=O)Nc2ccc(N3CCCCCC3)cc2)CC1` [Example 12, N-[4-(azepan-1-yl)phenyl]-2-[4-(1-hydroxy-1-methyl-ethyl)-1-piperidyl]acetamide], 2000 to 10000 nM; that for `O=C(CN1CCC(O)(c2ccc(Cl)cc2)CC1)Nc1ccc(N2CCCCCC2)cc1` [Example 13, N-[4-(azepan-1-yl)phenyl]-2-[4-(4-chlorophenyl)-4-hydroxy-1-piperidyl]acetamide], less than 500 nM.
As to `O=C(CN1CCCC1)Nc1ccc(N2CCCCCC2)cc1` [Example 14, N-[4-(azepan-1-yl)phenyl]-2-pyrrolidin-1-yl-acetamide hydrochloride], the IC50 was in the range of 2000 to 10000 nM.
Under `CC1CCCN(CC(=O)Nc2ccc(N3CCCCCC3)cc2)C1` (stereo not shown) [Example 15] stands 2000 to 10000 nM; under `O=C(CN1CCCCC1c1ccc(Cl)cc1)Nc1ccc(N2CCCCCC2)cc1` (stereo not shown) [Example 16, N-[4-(azepan-1-yl)phenyl]-2-[2-(4-chlorophenyl)-1-piperidyl]acetamide], 500 to 2000 nM; under `O=C(CN1CCCC(c2cccc(Cl)c2)C1)Nc1ccc(N2CCCCCC2)cc1` (stereo not shown) [Example 17, N-[4-(azepan-1-yl)phenyl]-2-[3-(3-chlorophenyl)-1-piperidyl]acetamide], less than 500 nM.
The result for `N#Cc1cccc(C2CCN(CC(=O)Nc3ccc(N4CCCCCC4)cc3)CC2)c1` [Example 18, N-[4-(azepan-1-yl)phenyl]-2-[4-(3-cyanophenyl)-1-piperidyl]acetamide] reads less than 500 nM; that for `O=C(CN1CCC(c2ccc(F)cc2)C1)Nc1ccc(N2CCCCCC2)cc1` (stereo not shown) [Example 20, N-[4-(azepan-1-yl)phenyl]-2-[3-(4-fluorophenyl)pyrrolidin-1-yl]acetamide], 500 to 2000 nM; that for `O=C(CN1CCCC(OCc2ccccc2)C1)Nc1ccc(N2CCCCCC2)cc1` (stereo not shown) [Example 22, N-[4-(azepan-1-yl)phenyl]-2-(3-benzyloxy-1-piperidyl)acetamide], 500 to 2000 nM.
Under `O=C(CCN1CCCCC1)Nc1ccc(N2CCCCCC2)cc1` [Example 23] stands 2000 to 10000 nM; under `CC(C(=O)Nc1ccc(N2CCCCCC2)cc1)N1CCCCC1` (stereo not shown) [Example 24, N-[4-(azepan-1-yl)phenyl]-2-(1-piperidyl)propanamide], 2000 to 10000 nM.
Consider `O=C(CN1CCCCC1)Nc1ccc(N2CCCCCC2)nc1` [Example 25, N-[6-(azepan-1-yl)-3-pyridyl]-2-(1-piperidyl)acetamide], for which the half-inhibitory concentration (IC50) was 500 to 2000 nM.
Under `O=C(CN1C2CCC1CC2)Nc1ccc(N2CCCCCC2)nc1` [Example 26, 2-(7-azabicyclo[2.2.1]heptan-7-yl)-N-[6-(azepan-1-yl)-3-pyridyl]acetamide] stands 500 to 2000 nM; under `O=C(CNC1CCCCC1)Nc1ccc(N2CCCCCC2)nc1` [Example 27, N-[6-(azepan-1-yl)-3-pyridyl]-2-[cyclohexylamino]acetamide], 2000 to 10000 nM; under `CN(CC(=O)Nc1ccc(N2CCCCCC2)nc1)C1CCCCC1` [Example 28], 2000 to 10000 nM.
The result for `O=C(CNC1CCCCCC1)Nc1ccc(N2CCCCCC2)nc1` [Example 29, N-[6-(azepan-1-yl)-3-pyridyl]-2-(cycloheptylamino)acetamide] reads 500 to 2000 nM.
Under `O=C(CNc1ccccc1)Nc1ccc(N2CCCCCC2)nc1` [Example 30, 2-anilino-N-[6-(azepan-1-yl)-3-pyridyl]acetamide] stands 500 to 2000 nM; under `O=C(CNCc1ccccc1)Nc1ccc(N2CCCCCC2)nc1` [Example 31, N-[6-(azepan-1-yl)-3-pyridyl]-2-(benzylamino)acetamide], 2000 to 10000 nM.
Take `O=C(CN1CC2CCC(C2)C1)Nc1ccc(N2CCCCCC2)nc1` [Example 32, 2-(3-azabicyclo[3.2.1]octan-3-yl)-N-[6-(azepan-1-yl)-3-pyridyl]acetamide]: the IC50 was less than 500 nM.
Under `O=C(CN1CCCCC1)Nc1ccc(N2CCCCCC2)cn1` [Example 34] stands 2000 to 10000 nM; under `O=C(CN1CCCCC1)Nc1cnc(N2CCCCCC2)nc1` [Example 35, N-[2-(azepan-1-yl)pyrimidin-5-yl]-2-(1-piperidyl)acetamide], 500 to 2000 nM; under `O=C(CN1CCCCC1)Nc1ccc(N2CCCCCC2)c(F)c1` [Example 36, N-[4-(azepan-1-yl)-3-fluoro-phenyl]-2-(1-piperidyl)acetamide], less than 500 nM.
`O=C(CN1CCCCC1)Nc1ccc(N2CCCCCC2)cc1F` [Example 38, N-4-(azepan-1-yl)-2-fluoro-phenyl1-2-(1-piperidyl)acetamide]: the IC50 lay in the range of 2000 to 10000 nM.
